{
  "source": "patent US11400059B2",
  "about": "“Treatment of pain and/or pain related symptoms associated with dysmenorrhea” (ALYRA BIOTECH PTY LTD, priority 2017, dated 2022)",
  "key": {"[1]": {"system": "spinal astrocytes (GFAP) in the dorsal horn of the spinal cord", "experiment": "Spinal astrocyte activation (GFAP immunofluorescence) after intrauterine LPS", "type": "in vivo, mouse (Balb/C)", "settings": "intrauterine, mixed with LPS 100 μg/kg on first day of estrus and alone the subsequent day, 3 estrous cycles; amitriptyline 28 μg/kg, TAK-242 36 μg/kg; vs LPS", "protocol": "(§1) Group 1 included twelve mice with 20 μl endotoxin-free saline introduced to the uterus on the first day of estrus and the subsequent day over 3 consecutive estrous cycles. Group 2 included twelve mice with LPS (100 μg/kg) instilled in the uterus on the first day of estrus and saline injected on the subsequent day over 3 consecutive estrous cycles. Group 3 included twelve mice with LPS (100 μg/kg) mixed with amitriptyline (20 μl of a 100 μM solution, equivalent to 28 μg/kg) instilled in the uterus on the first day of estrus, and amitriptyline alone instilled on the subsequent day over 3 consecutive estrous cycles. Group 4 included 14 mice with LPS (100 μg/kg) mixed with TAK-242 (20 μl of a 100 μM solution, equivalent to 36 μg/kg) instilled on the first day of estrus and TAK-242 alone instilled on the subsequent day over 3 consecutive estrous cycles.\n(§2) The investigation involved the instillation of 20 ul of an endotoxin-free 0.9% saline solution into the uterus of all animals on the first day of estrus and the subsequent day during 3 consecutive estrous cycles. Additional agents added to the saline were included according to the groups outlined below. Where LPS is administered, this was done on only 1 day per estrous cycle.\n(§3) Where amitriptyline or TAK-242 was administered, this is on both the first day of estrus and the subsequent day.\n(§4) The spinal cord was assessed using immunohistochemistry techniques across levels T10, T11, T12, T13, L1, L2, L3, L4, L5, L6, S1 and S2 for Groups 1 and 2, where T represents the thoracic segment of the spinal cord, L represents the lumbar segment of the spinal cord and S represents the sacral segment of the spinal cord.\nas §4, with “levels” for “levels T10, T11,”, “L6, S” for “L6, S1”, “Groups 3” for “Groups 1”, “and 4,” for “and 2,”, “cord. […]” for “cord.”"}, "[2]": {"system": "spinal microglia (Iba1) in the dorsal horn of the spinal cord", "experiment": "Spinal microglial activation (Iba1 immunofluorescence) after intrauterine LPS", "type": "in vivo, mouse (Balb/C)", "settings": "intrauterine, mixed with LPS 100 μg/kg on first day of estrus and alone the subsequent day, 3 estrous cycles; amitriptyline 28 μg/kg, TAK-242 36 μg/kg; vs LPS", "protocol": "as §1, §2, §3, §4\nas §4, with “levels” for “levels T10, T11,”, “L6, S” for “L6, S1”, “Groups 3” for “Groups 1”, “and 4,” for “and 2,”, “cord. […]” for “cord.”"}, "[3]": {"system": "spinal glial cells in the dorsal horn of the spinal cord", "experiment": "Spinal glial activation (astrocytes and microglia) after intrauterine LPS, overall statements", "type": "in vivo, mouse (Balb/C)", "settings": "for spinal glial activation induced by intrauterine LPS: intrauterine co-administration with LPS", "text": "In the model, we investigated whether intrauterine LPS administration would cause an activation of the innate immune system in the uterus, replicating the inflammation often seen in dysmenorrhea, with possible association with pain. As inflammation is intrinsically linked with pain, we investigated whether activation of the innate immune system in the uterus would induce activation of spinal glial cells (central nervous system immune cells) in the dorsal horn of the spinal cord. Spinal glial cells include astrocytes and microglia. Activation of spinal glial cells was assessed using immunoflourescent staining with GFAP (astrocytes) or Iba1 (microglia). We then investigated if spinal glial activation is attenuated by the innate immune system blocking drugs amitriptyline and TAK-242.\nas §1\nDetermination of spinal glial response was then assessed using immunofluorescence to confirm the validity of the experimental model.\nDetermination of the ability of TLR4 antagonists to block the activation of spinal astrocytes and microglia induced by intra-uterine instillation of LPS was assessed.\nAn assessment of glial activation was made using immunochemistry techniques including Ionized calcium binding adaptor molecule 1 (Iba1) expression and glial fibrillary-associated protein (GFAP) variability in the dorsal horn. Iba1 expression is a marker for microglial activation, and GFAP is a marker for astrocyte activation. The spinal cord levels chosen are consistent with the level of spinal afferent neurons associated with the pelvis, including the uterus in the mouse."}, "[4]": {"system": "mice with intrauterine LPS", "experiment": "Facial Grimace Scale 24 hours after final LPS stimulation", "type": "in vivo, mouse (Balb/C)", "settings": "LPS in conjunction with amitriptyline or TAK242, 24 hours after final LPS stimulation", "protocol": "as §1\n24 hours following the final LPS stimulation mice were subjected to assessment for the presence or absence of pain. This was assessed using the following tests:\nFacial Grimace Scale: Photos of mice in their home cage will be taken, to score their facial Grimace and this was quantified and compared between groups. For further information see: http://www.nature.com/nmeth/journal/v7/n6/full/nmeth.1455.html."}, "HEK293/Null": {"system": "HEK293/Null", "experiment": "Antagonist screening on RIG-I−/MDA-5− control cell line stimulated with hIFNα", "type": "cell-based", "settings": "stimulated with recombinant hIFNα at 100 IU/mL", "protocol": "RIG-I and MDA-5 stimulation were tested by assessing IRF3 activation in HEK293 cells expressing human RIG-I or MDA-5 genes. The activity of the test articles was tested on human RIG-I and MDA-5 expressing cells as a potential agonist or antagonist. The test articles were evaluated at one concentration and compared to control ligands. This step was performed in triplicate. The results are provided as Relative Luminescence Units (RLUs).\nRIG-I^−/MDA-5^− Cell Lines: HEK293/Null: Control for human RIG-I and MDA-5 Poly(I:C)HMW/LyoVec at 1 μg/mL. Antagonist: 500 ng/mL 5′ppp-dsRNA/LyoVec at 1 μg/mL. Antagonist: 500 ng/mL hIFNα at 1000 IU/mL. Antagonist: 100 IU/mL.\nIn a 96-well plate (200 μL total volume) containing the appropriate cells (25,000-50,000 cells/well), 20 μL of the test article or of the positive control ligand was added to the wells. For the antagonist assay, the test article was incubated with the cells, at 37° C. with 5% CO2, for 30 minutes prior to the addition of the positive control ligand to the wells. After 20 hour incubation, activation of the IRF pathway was monitored using a luciferase detection assay. Luciferase activity was assayed in triplicate from the supernatant of the induced cells, and the relative luminescence units (RLUs) are detected by a Promega GloMax Luminometer."}, "[5]": {"settings": "taken orally; cited from earlier work"}},
  "data": [
    {"smiles": "CN(C)CCC=C1c2ccccc2CCc2ccccc21", "note": "[Amitriptyline]", "values": [
      {"measurement": "astrocytic reactivity (GFAP staining), impact of intrauterine LPS at multiple levels of the spinal cord", "setting": "[1]", "result": "reduced astrocytic reactivity to below basal levels"},
      {"measurement": "microglial reactivity (Iba1 staining), impact of intrauterine LPS at multiple levels of the spinal cord", "setting": "[2]", "result": "reduced microglial reactivity to basal levels"},
      {"measurement": "spinal glial activation induced by intrauterine LPS", "setting": "[3]", "result": "additional activity reducing spinal glial activation above TAK-242 alone"},
      {"measurement": "spinal glial activation induced by intrauterine LPS", "setting": "[3]; listed as amitriptyline", "result": "prevented"},
      {"measurement": "dose effective at reducing spinal glial activation", "setting": "[3]; mouse model, intrauterine administration", "result": 0.027, "unit": "mg/kg"},
      {"measurement": "Grimace scores", "setting": "[4]", "result": "reduced these scores"},
      {"measurement": "effect on RIG-I−/MDA-5− control cell line", "setting": "HEK293/Null", "result": "inhibitory effect"},
      {"measurement": "side effects", "setting": "[5]", "result": "drowsiness, dry mouth, blurred vision, pupil dilation, constipation, weight and urinary retention"}
    ]}
  ]
}
